The supplement of paper PMC13380429

Assays:
Conditions in all cases: 72 h
Vero E6 [1] = assay: relative viability EC50 (midpoint between 100% and the lowest measured viability); higher = less toxic
U2OS [2] = assay: as above
Calu-3 [3] = assay: as above
HepG2 [4] = assay: as above
Caco-2 [5] = assay: as above
Vero E6 [6] = assay: drug sensitivity score (DSS) for viability; higher = more toxic; extreme values may be limits of the assay
U2OS [7] = assay: as above
Calu-3 [8] = assay: as above
HepG2 [9] = assay: as above
Caco-2 [10] = assay: as above
Vero E6 [11] = assay: cell viability relative to DMSO; higher = less toxic
U2OS [12] = assay: as above
Calu-3 [13] = assay: as above
HepG2 [14] = assay: as above
Caco-2 [15] = assay: as above

| Compound | relative viability EC50 (Vero E6 [1]) [µM] | relative viability EC50 (U2OS [2]) [µM] | relative viability EC50 (Calu-3 [3]) [µM] | relative viability EC50 (HepG2 [4]) [µM] | relative viability EC50 (Caco-2 [5]) [µM] | drug sensitivity score (Vero E6 [6]) | drug sensitivity score (U2OS [7]) | drug sensitivity score (Calu-3 [8]) | drug sensitivity score (HepG2 [9]) | drug sensitivity score (Caco-2 [10]) | cell viability (Vero E6 [11]; 1 nM) [%] | cell viability (Vero E6 [11]; 10 nM) [%] | cell viability (Vero E6 [11]; 100 nM) [%] | cell viability (Vero E6 [11]; 1000 nM) [%] | cell viability (Vero E6 [11]; 10000 nM) [%] | cell viability (U2OS [12]; 1 nM) [%] | cell viability (U2OS [12]; 10 nM) [%] | cell viability (U2OS [12]; 100 nM) [%] | cell viability (U2OS [12]; 1000 nM) [%] | cell viability (U2OS [12]; 10000 nM) [%] | cell viability (Calu-3 [13]; 1 nM) [%] | cell viability (Calu-3 [13]; 10 nM) [%] | cell viability (Calu-3 [13]; 100 nM) [%] | cell viability (Calu-3 [13]; 1000 nM) [%] | cell viability (Calu-3 [13]; 10000 nM) [%] | cell viability (HepG2 [14]; 1 nM) [%] | cell viability (HepG2 [14]; 10 nM) [%] | cell viability (HepG2 [14]; 100 nM) [%] | cell viability (HepG2 [14]; 1000 nM) [%] | cell viability (HepG2 [14]; 10000 nM) [%] | cell viability (Caco-2 [15]; 1 nM) [%] | cell viability (Caco-2 [15]; 10 nM) [%] | cell viability (Caco-2 [15]; 100 nM) [%] | cell viability (Caco-2 [15]; 1000 nM) [%] | cell viability (Caco-2 [15]; 10000 nM) [%] |
| --- | --- | --- | --- | --- | --- | --- | --- | --- | --- | --- | --- | --- | --- | --- | --- | --- | --- | --- | --- | --- | --- | --- | --- | --- | --- | --- | --- | --- | --- | --- | --- | --- | --- | --- | --- |
| NC(N)=Nc1nc(CSCCN/C=N/S(=O)(=O)c2ccc(Br)cc2)cs1 [ebrotidine] | > 10 | > 10 | > 10 | > 10 | > 10 | 0 | 0 | 0 | 0.5 | 0 | 88.7 | 91.8 | 97.7 | 90.6 | 105 | 100 | 103 | 98.6 | 106 | 98.9 | 96 | 101 | 94.8 | 101 | 93.3 | 98.2 | 97.6 | 112 | 93.4 | 86.5 | 97.8 | 102 | 95 | 99.5 | 99.9 |
| O=C(O)Cc1ccc2c(c1)C(=O)c1ccccc1CO2 [isoxepac] | > 10 | > 10 | > 10 | > 10 | > 10 | 0 | 0 | 0 | 0 | 0 | 98.3 | 97.5 | 101 | 101 | 100 | 102 | 95.4 | 101 | 98.3 | 101 | 96.9 | 97.9 | 98.5 | 101 | 98.5 | 99.1 | 103 | 97.5 | 101 | 91.2 | 94.7 | 102 | 109 | 100 | 93.6 |
| COc1ccc2ccc(=O)oc2c1CC=C(C)C [osthol] | > 10 | > 10 | > 10 | > 10 | > 10 | 0 | 0 | 0 | 0 | 0 | 95.1 | 94.4 | 95.9 | 93.2 | 99.2 | 92.9 | 100 | 93.3 | 99 | 102 | 86.6 | 98.2 | 104 | 114 | 108 | 96.5 | 105 | 98.8 | 106 | 100 | 94.3 | 95.1 | 94 | 100 | 101 |
| NC[C@H]1O[C@H](O[C@H]2[C@H](O)[C@@H](O[C@H]3O[C@H](CO)[C@@H](O)[C@H](N)[C@H]3O)[C@H](N)C[C@@H]2N)[C@H](N)C[C@@H]1O [tobramycin] | > 10 | > 10 | > 10 | > 10 | > 10 | 0 | 0 | 0 | 0 | 0 | 99.6 | 101 | 100 | 95.7 | 107 | 95 | 103 | 97.6 | 100 | 108 | 99.4 | 102 | 101 | 98.5 | 102 | 108 | 94.5 | 104 | 97.6 | 106 | 90.2 | 92.8 | 104 | 92.6 | 106 |
| COc1cc(N)c(Cl)cc1C(=O)NC1CN2CCC1CC2 (stereo not given) [zacopride] | > 10 | > 10 | > 10 | > 10 | > 10 | 0 | 0 | 0 | 0 | 0 | 98.9 | 92.8 | 97.9 | 97.4 | 106 | 92.5 | 96.3 | 96.7 | 98.3 | 92.2 | 96.9 | 100 | 97 | 85 | 95.3 | 107 | 99.5 | 102 | 100 | 109 | 101 | 97.6 | 97.6 | 95.7 | 110 |
| COc1ccc(NC(=O)c2ccc(C(=N)N(C)C)cc2)c(C(=O)Nc2ccc(Cl)cn2)c1 [betrixaban] | > 10 | > 10 | > 10 | > 10 | > 10 | 0 | 0 | 0 | 0 | 0 | 98.7 | 99.1 | 97.3 | 96.4 | 93.9 | 96.2 | 100 | 95.6 | 100 | 97.8 | 90.9 | 101 | 105 | 95.1 | 95.5 | 98.6 | 100 | 105 | 96.3 | 100 | 101 | 97.5 | 97.5 | 97.6 | 91.5 |
| O=C1CCC[C@@H]2[C@H]3CCCN4CCC[C@@H](CN12)[C@@H]34 [matrine] | > 10 | > 10 | > 10 | > 10 | > 10 | 0 | 0 | 0 | 0 | 0 | 96.8 | 98.7 | 93.3 | 99.1 | 104 | 96.1 | 96.4 | 96.4 | 93.7 | 99.1 | 97 | 93.5 | 100 | 98.5 | 100 | 89.9 | 108 | 85.8 | 111 | 103 | 97.6 | 94 | 94.9 | 91.4 | 90.4 |
